In general, IC50 refers to the concentration needed to halve the response being measured. Lower therefore signals greater potency.

Assay [1] addresses purified human, His-tagged PRC2 complex (Homo sapiens, UniProt O75530+Q15910). The assay can be described thus: Hot Spot HMT assay: inhibition of PRC2 enzymatic activity (transfer of tritiated methyl from SAM to core histone, filter binding). Type of assay: biochemical. The note with it: Inhibition of PRC2-mediated enzymatic activity; 10 nM PRC2 complex, 0.05 mg/ml core histone H3, 1 uM 3H-SAM, 1 hr at 30°C. In a few lines: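 Five-subunit complex (His-EZH2, Flag-EED, His-SUZ12, His-AEBP2, His-RbAp48) at 10 nM with 0.05 mg/ml core histone H3, pH 8 Tris buffer, 1% DMSO; 20 min compound pre-incubation at 30°C. Started with 1 uM [3H]-SAM, 1 hr at 30°C; tritiated H3 counted by scintillation. Compounds diluted from 1.0 µM top concentration.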

In assay [2] the test system is PRC2-mediated histone H3 methylation. The assay can be described thus: Tri-Methyl Histone H3 (Lys 27) Sandwich ELISA in Pfeiffer cells: inhibition of PRC2-mediated histone H3 methylation. Type of assay: cell-based, human. The following applies: Inhibition of EZH2-mediated histone H3 trimethylation, Pfeiffer cells (EZH2 A677G), 96 hours incubation. An excerpt: The Pfeiffer cell line was established from a […] from a patient having metastatic diffuse large B-cell lymphoma (DLBCL). This cell line expresses a mutant form of the EZH2 enzyme (A677G) that results in enhanced EZH2 activity leading to increased methylation of histone H3 Lys27. Increased trimethylation of histone H3 Lys27 is believed to be implicated in tumorgenesis and poor clinical prognosis in lymphomas (McCabe et al., (2012) Nature 492:108-112).
Inhibition of PRC2-mediated histone H3 methylation by compounds of Formula (I) was measured by ELISA using a Tri-Methyl Histone H3 (Lys 27) Sandwich ELISA Kit (Cell Signaling Tech #7866C) in accordance with the manufacturer's instructions. Briefly, Pfeiffer cells were cultured in RPMI medium supplemented with 10% fetal bovine serum and 1% penicillin and 1% streptomycin in 96 well culture plates at 37°C to a density of 8000 cells/90µl/well and the cells were harvested. A series of 3-fold serial dilutions of each test compound of Formula (I) were prepared in RPMI medium and added to the cells at final concentrations ranging from 1µM to 0.15 nM. The plates were incubated at 37°C for 96 hours.
After incubation, the cells were pelleted by centrifugation in a pre-cooled 4°C rotor at 1, 100 rpm for 10 min and the supernatant was removed by aspiration. The cell pellet was resuspended in 55µl of Lysis Buffer (0.4M HCl) and incubated on ice with periodic shaking for 30 minutes. The lysed cells were subjected to centrifugation at 4, 200 rpm for 10 min at 4°C and the supernatant containing acid-soluble proteins was collected and the remainder discarded. The acid-soluble proteins were brought to a neutral pH by the addition of 20 µl of Neutralization Buffer (1 M Sodium phosphate, dibasic (pH 12.5), 2.5 mM DTT and 1 mM PMSF) and the neutralized lysates were analyzed by ELISA.
A 65 µl aliquot of each cell lysate was added to a well of a microwell strip, the microwells were sealed using tape and incubated either at 37°C for two hours or at 4°C overnight. After incubation, the tape was removed at the microwells were washed four times using 200 µl of 1X Wash Buffer. To each washed microwell, a 100 µl aliquot of an antitrimethyl histone H3 Lys27 Detection Antibody solution was added and the microwells were incubated at 37°C for one hour. The Detection Antibody solution was removed by aspiration and the wells were washed four times each using 200 µl of 1X Wash Buffer.
A 100 µl aliquot of an HRP-linked secondary antibody was added to each well, the wells were sealed with tape and incubated at 37°C for 30 min. The HRP-linked secondary antibody solution was removed by aspiration and the wells were washed four times using 200 µl of 1X Wash Buffer. A 100 µl aliquot of a TMB substrate was added to each well, the wells were sealed with tape and incubated at 37°C for 10 min or 25°C for 30 min. The reaction was stopped by the addition of 100 µl aliquot of a STOP solution and the plate was shaken briefly. The degree of histone H3 trimethylation was determined using a spectrophotometric readout by measuring the absorbance at 450 nm and then calculating the amount of trimethylated histone H3. A = ≤100 nM; B = >100 nM - ≤500 nM; C = >500 nM and N.D. = not determined.
On the technique in general: ELISA stands for enzyme-linked immunosorbent assay.

In a further assay the test system is Karpas 422 cells. The assay can be described thus: Karpas 422 cell viability, CTG (Cell Titre Glo) assay. The following applies: Inhibition of proliferation of Karpas 422 cells (EZH2 Y641N), viability measured Day 4, Day 7 or Day 11, time point of the tabulated values not stated. In kind it is cell-based, human. In a few lines: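 Karpas 422 cells (EZH2 Y641N, DLBCL) plated at 1000 cells/well in RPMI with 20% FBS, exposed to compound 10µM down to 1.5nM in 3-fold steps at 37 °C. Viability by CellTiter-Glo on Days 4, 7 and 11; Day 11 plates re-fed with fresh medium and compound on Day 7. IC50 per time point.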

Sequence of purified human, His-tagged PRC2 complex (Q15910 whole entry): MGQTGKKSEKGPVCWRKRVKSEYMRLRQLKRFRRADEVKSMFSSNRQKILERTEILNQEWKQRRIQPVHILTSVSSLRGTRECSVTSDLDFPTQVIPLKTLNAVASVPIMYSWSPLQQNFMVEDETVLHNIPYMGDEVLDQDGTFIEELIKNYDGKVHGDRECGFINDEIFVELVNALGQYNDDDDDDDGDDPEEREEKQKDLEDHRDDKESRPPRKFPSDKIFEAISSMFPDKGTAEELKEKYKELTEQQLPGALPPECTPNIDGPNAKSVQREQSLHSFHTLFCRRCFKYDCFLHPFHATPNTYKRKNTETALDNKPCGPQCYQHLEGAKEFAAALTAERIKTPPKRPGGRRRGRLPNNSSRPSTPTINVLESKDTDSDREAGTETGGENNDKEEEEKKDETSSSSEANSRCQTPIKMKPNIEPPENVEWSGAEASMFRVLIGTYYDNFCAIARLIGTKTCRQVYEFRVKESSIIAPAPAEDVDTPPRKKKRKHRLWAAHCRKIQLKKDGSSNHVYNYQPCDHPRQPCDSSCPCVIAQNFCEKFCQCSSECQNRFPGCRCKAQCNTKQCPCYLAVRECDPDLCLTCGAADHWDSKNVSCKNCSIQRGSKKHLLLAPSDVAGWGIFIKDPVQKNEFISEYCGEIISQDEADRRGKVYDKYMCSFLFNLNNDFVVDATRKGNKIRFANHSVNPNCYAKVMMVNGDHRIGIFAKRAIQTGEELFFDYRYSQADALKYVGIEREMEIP
Sequence of purified human, His-tagged PRC2 complex (O75530 whole entry): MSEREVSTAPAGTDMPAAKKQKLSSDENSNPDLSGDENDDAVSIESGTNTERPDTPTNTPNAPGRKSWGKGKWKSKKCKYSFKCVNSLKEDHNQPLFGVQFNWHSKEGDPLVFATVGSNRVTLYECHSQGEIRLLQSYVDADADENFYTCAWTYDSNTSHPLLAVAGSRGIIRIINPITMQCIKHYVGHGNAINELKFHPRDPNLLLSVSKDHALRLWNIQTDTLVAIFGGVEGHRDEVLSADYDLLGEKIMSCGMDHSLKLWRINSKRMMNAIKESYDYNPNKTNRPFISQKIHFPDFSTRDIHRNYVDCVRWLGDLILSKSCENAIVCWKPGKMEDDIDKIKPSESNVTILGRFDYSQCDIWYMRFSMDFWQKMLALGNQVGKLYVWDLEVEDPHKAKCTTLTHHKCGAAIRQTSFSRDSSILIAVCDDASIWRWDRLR
Sequence of purified human, His-tagged PRC2 complex (Q15022 whole entry partner): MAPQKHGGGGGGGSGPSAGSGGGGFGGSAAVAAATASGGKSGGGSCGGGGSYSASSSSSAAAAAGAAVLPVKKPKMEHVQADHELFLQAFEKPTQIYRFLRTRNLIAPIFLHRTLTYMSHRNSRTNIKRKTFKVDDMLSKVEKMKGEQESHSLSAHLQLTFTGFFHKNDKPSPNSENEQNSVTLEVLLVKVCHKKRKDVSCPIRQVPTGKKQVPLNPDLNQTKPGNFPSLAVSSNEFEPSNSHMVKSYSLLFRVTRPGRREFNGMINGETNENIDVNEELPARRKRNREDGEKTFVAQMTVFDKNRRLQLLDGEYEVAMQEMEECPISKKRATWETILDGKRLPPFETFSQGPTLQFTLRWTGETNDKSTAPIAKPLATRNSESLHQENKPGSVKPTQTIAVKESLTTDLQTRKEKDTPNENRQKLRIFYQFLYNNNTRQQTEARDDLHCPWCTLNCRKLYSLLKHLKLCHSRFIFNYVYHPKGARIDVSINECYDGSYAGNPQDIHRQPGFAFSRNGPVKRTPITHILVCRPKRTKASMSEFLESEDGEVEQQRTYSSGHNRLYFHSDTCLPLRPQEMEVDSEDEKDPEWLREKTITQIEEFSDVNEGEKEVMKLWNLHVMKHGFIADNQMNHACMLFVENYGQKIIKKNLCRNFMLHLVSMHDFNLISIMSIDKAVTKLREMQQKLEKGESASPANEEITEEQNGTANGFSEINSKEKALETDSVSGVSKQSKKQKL
Sequence of purified human, His-tagged PRC2 complex (Q6ZN18 whole entry partner): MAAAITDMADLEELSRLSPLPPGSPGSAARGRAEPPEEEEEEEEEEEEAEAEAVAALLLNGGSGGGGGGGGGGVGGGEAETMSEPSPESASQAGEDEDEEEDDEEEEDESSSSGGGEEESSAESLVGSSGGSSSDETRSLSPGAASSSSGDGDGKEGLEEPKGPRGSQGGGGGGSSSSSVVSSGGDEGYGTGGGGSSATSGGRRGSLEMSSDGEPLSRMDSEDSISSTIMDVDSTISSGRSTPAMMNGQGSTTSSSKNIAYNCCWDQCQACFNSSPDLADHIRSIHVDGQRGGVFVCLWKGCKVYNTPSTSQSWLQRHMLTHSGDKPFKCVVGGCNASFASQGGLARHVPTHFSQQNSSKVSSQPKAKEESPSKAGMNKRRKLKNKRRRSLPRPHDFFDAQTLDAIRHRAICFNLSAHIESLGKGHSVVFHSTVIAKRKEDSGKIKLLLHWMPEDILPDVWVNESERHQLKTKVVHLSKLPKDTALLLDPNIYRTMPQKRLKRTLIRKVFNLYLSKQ
Sequence of purified human, His-tagged PRC2 complex (Q09028 whole entry partner): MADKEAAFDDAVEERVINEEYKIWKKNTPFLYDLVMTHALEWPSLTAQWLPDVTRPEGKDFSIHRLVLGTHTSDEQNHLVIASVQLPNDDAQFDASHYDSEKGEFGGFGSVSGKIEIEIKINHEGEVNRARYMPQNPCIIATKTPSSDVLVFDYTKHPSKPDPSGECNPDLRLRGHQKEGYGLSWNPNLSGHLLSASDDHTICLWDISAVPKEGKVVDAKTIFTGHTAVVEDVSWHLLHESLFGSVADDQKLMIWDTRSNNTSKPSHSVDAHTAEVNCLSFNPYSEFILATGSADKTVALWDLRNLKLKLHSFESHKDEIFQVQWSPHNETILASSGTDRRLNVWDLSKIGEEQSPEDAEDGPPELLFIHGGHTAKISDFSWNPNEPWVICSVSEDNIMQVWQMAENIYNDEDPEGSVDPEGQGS

`Cc1nc(-c2cnc(NCc3c(F)ccc4c3CCO4)n3cc(C#N)nc23)c(C)s1` [Example 145, 8-(2,5-dimethylthiazol-4-yl)-5-(((5-fluoro-2,3-dihydrobenzofuran-4-yl)methyl)amino)imidazo[1,2-c]pyrimidine-2-carbonitrile]: the IC50 in assay [1] was 0.1 to 0.5 µM; in assay [2] (Homo sapiens), 0.1 to 0.5 µM; with Karpas 422 cells (Homo sapiens), ≤ 0.25 µM.
For `CN(C)Cc1ccc(-c2cnc(NCc3c(F)ccc4c3CCO4)n3cc(C#N)nc23)cc1C#N` [Example 201, 8-(3-cyano-4-((dimethylamino)methyl)phenyl)-5-(((5-fluoro-2,3-dihydrobenzofuran-4-yl)methyl)amino)imidazo[1,2-c]pyrimidine-2-carbonitrile], the IC50 in assay [1] was < 0.1 µM; in assay [2] (Homo sapiens) it was 0.1 to 0.5 µM; in the assay with Karpas 422 cells (Homo sapiens) it was ≤ 0.25 µM.
As to `Cn1nc(C#N)cc1-c1cnc(NCc2c(F)ccc3c2CCO3)n2cc(C#N)nc12` [Example 212, 8-(3-cyano-1-methyl-1H-pyrazol-5-yl)-5-(((5-fluoro-2,3-dihydrobenzofuran-4-yl)methyl)amino)imidazo[1,2-c]pyrimidine-2-carbonitrile], the IC50 in assay [1] is < 0.1 µM; in assay [2] (Homo sapiens), ≤ 0.1 µM; with Karpas 422 cells (Homo sapiens), ≤ 0.25 µM.
Take `Cc1ccc(-c2cnc(NCc3c(F)ccc4c3CCO4)n3cc(C#N)nc23)cc1` [Example 175, 5-(((5-fluoro-2,3-dihydrobenzofuran-4-yl)methyl)amino)-8-(p-tolyl)imidazo[1,2-c]pyrimidine-2-carbonitrile]: the results for the IC50 (in assay [1]; in assay [2] (Homo sapiens); in the assay with Karpas 422 cells (Homo sapiens)) were 0.1 to 0.5 µM, > 0.5 µM and 0.25 to 0.5 µM, respectively.
Consider `N#Cc1cn2c(NCc3c(F)ccc4c3CCO4)ncc(-c3cnccn3)c2n1` [Example 68, 5-(((5-fluoro-2,3-dihydrobenzofuran-4-yl)methyl)amino)-8-(pyrazin-2-yl)imidazo[1,2-c]pyrimidine-2-carbonitrile], for which the concentration for half-maximal inhibition (IC50) in assay [1] is < 0.1 µM; in assay [2] (Homo sapiens), 0.1 to 0.5 µM; with Karpas 422 cells (Homo sapiens), ≤ 0.25 µM.
Turning to `CNCc1ccc(-c2cnc(NCc3c(F)ccc4c3CCO4)n3cc(C#N)nc23)cc1F` [Example 197, 5-(((5-fluoro-2,3-dihydrobenzofuran-4-yl)methyl)amino)-8-(3-fluoro-4-((methylamino)methyl)phenyl)imidazo[1,2-c]pyrimidine-2-carbonitrile], the figures for the IC50 (in assay [1]; in assay [2] (Homo sapiens); in the assay with Karpas 422 cells (Homo sapiens)) were < 0.1 µM, 0.1 to 0.5 µM and ≤ 0.25 µM, respectively.
`[2H]C1Oc2ccc(F)c(C([2H])([2H])Nc3ncc(-c4ccc(CN(C)C)cc4C)c4nc(C#N)cn34)c2C1[2H]` (stereo not drawn) [Example 223, 8-(4-((dimethylamino)methyl)-2-methylphenyl)-5-(((5-fluoro-2,3-dihydrobenzofuran-4-yl-2,3-d2)methyl-d2)amino)imidazo[1,2-c]pyrimidine-2-carbonitrile]: the figures for the IC50 (in assay [1]; in assay [2] (Homo sapiens); with Karpas 422 cells (Homo sapiens)) were < 0.1 µM, 0.1 to 0.5 µM and ≤ 0.25 µM, respectively.
With `CN1CCN(C(=O)c2cc(-c3cnc(NCc4c(F)ccc5c4CCO5)n4cc(C#N)nc34)n(C)n2)CC1` [Example 229, 5-(((5-fluoro-2,3-dihydrobenzofuran-4-yl)methyl)amino)-8-(1-methyl-3-(4-methylpiperazine-1-carbonyl)-1H-pyrazol-5-yl)imidazo[1,2-c]pyrimidine-2-carbonitrile], the IC50 was < 0.1 µM in assay [1], ≤ 0.1 µM in assay [2] (Homo sapiens) and ≤ 0.25 µM with Karpas 422 cells (Homo sapiens).
With “5-(((5-fluoro-2,3-dihydrobenzofuran-4-yl)methyl)amino)-8-(2-methylpyridin-4-yl)imidazo[1,2-c]pyrimidine-2-carbonitrile [Example 178]”, the results for the IC50 (in assay [1]; in assay [2]; in the assay with Karpas 422 cells) were 0.1 to 0.5 µM, 0.1 to 0.5 µM and ≤ 0.25 µM, respectively.
Turning to `Cc1cc(CN(C)C)ncc1-c1cnc(NCc2c(F)ccc3c2CCO3)n2cc(C#N)nc12` [Example 195, 8-(6-((dimethylamino)methyl)-4-methylpyridin-3-yl)-5-(((5-fluoro-2,3-dihydrobenzofuran-4-yl)methyl)amino)imidazo[1,2-c]pyrimidine-2-carbonitrile], the IC50 was < 0.1 µM in assay [1], ≤ 0.1 µM in assay [2] (Homo sapiens) and ≤ 0.25 µM with Karpas 422 cells (Homo sapiens).
As to `N#Cc1cn2c(NCc3c(F)ccc4c3CCO4)ncc(-c3cc[nH]c(=O)c3)c2n1` [Example 218, 5-(((5-fluoro-2,3-dihydrobenzofuran-4-yl)methyl)amino)-8-(2-oxo-1,2-dihydropyridin-4-yl)imidazo[1,2-c]pyrimidine-2-carbonitrile], the IC50 in assay [1] was < 0.1 µM; in assay [2] (Homo sapiens), 0.1 to 0.5 µM; with Karpas 422 cells (Homo sapiens), 0.25 to 0.5 µM.
On the same counts, the results for `N#Cc1cn2c(NCc3c(F)ccc4c3CCO4)ncc(-c3cnn(CCO)c3)c2n1` [Example 182, 5-(((5-fluoro-2,3-dihydrobenzofuran-4-yl)methyl)amino)-8-(1-(2-hydroxyethyl)-1H-pyrazol-4-yl)imidazo[1,2-c]pyrimidine-2-carbonitrile] are 0.1 to 0.5 µM, 0.1 to 0.5 µM and ≤ 0.25 µM.
The like results for `Cc1nn(C[C@@H](C)O)c(C)c1-c1cnc(NCc2c(F)ccc3c2CCO3)n2cc(C#N)nc12` [Example 66, (R)-5-(((5-fluoro-2,3-dihydrobenzofuran-4-yl)methyl)amino)-8-(1-(2-hydroxypropyl)-3,5-dimethyl-1H-pyrazol-4-yl)imidazo[1,2-c]pyrimidine-2-carbonitrile] were, in that order, 0.1 to 0.5 µM, 0.1 to 0.5 µM and ≤ 0.25 µM.
For the compound `[2H]C([2H])([2H])N(Cc1ccc(-c2cnc(NCc3c(F)ccc4c3CCO4)n3cc(C#N)nc23)c(C)c1)C([2H])([2H])[2H]` [Example 202, 8-(4-((bis(methyl-d3)amino)methyl)-2-methylphenyl)-5-(((5-fluoro-2,3-dlhydrobenzofuran-4-yl)methyl)amino)imidazo[1,2-c]pyrimidine-2-carbonitrile], the IC50 in assay [1] was < 0.1 µM; in assay [2] (Homo sapiens), ≤ 0.1 µM; in the assay with Karpas 422 cells (Homo sapiens) it was ≤ 0.25 µM.
Consider `Cc1cc(-c2cnc(NCc3c(F)ccc4c3CCO4)n3cc(C(N)=O)nc23)n(C)n1` [Example 11, 8-(1,3-dimethyl-1H-pyrazol-5-yl)-5-(((5-fluoro-2,3-dihydrobenzofuran-4-yl)methyl)amino)imidazo[1,2-c]pyrimidine-2-carboxamide], for which the half-maximal inhibitory concentration (IC50) is < 0.1 µM in assay [1], ≤ 0.1 µM in assay [2] (Homo sapiens) and ≤ 0.25 µM in the assay with Karpas 422 cells (Homo sapiens).
`Cc1cc(S(=O)(=O)N(C)C)ccc1-c1cnc(NCc2c(F)ccc3c2CCO3)n2cc(C#N)nc12` [Example 48, 4-(2-cyano-5-(((5-fluoro-2,3-dihydrobenzofuran-4-yl)methyl)amino)imidazo[1,2-c]pyrimidin-8-yl)-N,N,3-trimethylbenzenesulfonamide]: the results for the IC50 (in assay [1]; in assay [2] (Homo sapiens); in the assay on Karpas 422 cells (Homo sapiens)) were < 0.1 µM, 0.1 to 0.5 µM and ≤ 0.25 µM, respectively.
